Experiments:
[1] = test system: ATF4 in H929 multiple myeloma cells; test: H929 ATF4 ELISA assay (stimulation of cellular ATF4); format: cell-based; details: 4 h, no thapsigargin
Procedure: H929 multiple myeloma cells (catalog #CRL-9068) were obtained from the American Type Culture Collection (ATTC, Manassas, VA). Briefly, cells were grown in RPMI-1640 medium supplemented with 20% heat-inactivated fetal bovine serum (catalog #A3840002, ThermoFisher Scientific, Waltham, MA), 1% Penicillin/Streptomycin/L-Glutamine (catalog #10378016, ThermoFisher Scientific, Waltham, MA), and 0.05 mM 2-mercaptoethanol (catalog #21985-023, ThermoFisher Scientific, Waltham, MA) at 37° C., 5% CO2, and 95% humidity. Cells were expanded until reaching one million five hundred thousand cells per mL at which time they were subcultured or harvested for assay use. One million five hundred thousand cells per well in 1 mL complete growth medium were dispensed into 12-well plates and incubated overnight. A serial dilution of test compound was added, and cells were incubated at 37° C., 5% CO2, and 95% for four hours. Cells were lysed then ATF4 levels were measured using an ELISA assay (Proteintech, Rosemont, IL). Absorbance is measured at 450 nm and 544 nM using a Synergy2 or equivalent reader (Biotek, Winooski VT). Data were analyzed using PRISM software (Graphpad, San Diego, CA) to calculate fold stimulation of cellular ATF4 relative to vehicle treated control.

PERK kinase = PERK kinase (Homo sapiens (Human), UniProt Q9NZJ5); test: Biochemical assay for PERK (coupled pyruvate kinase/lactate dehydrogenase assay); details: 1 mM ATP, rate from 2-3 h time frame
Summary of the method: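 Coupled pyruvate kinase/lactate dehydrogenase readout of ATP hydrolysis via NADH oxidation (A340), 10 nM PERK, 0.25 mg/mL myelin basic protein, 1 mM ATP, pH 7.5 Tris/MgCl2 buffer, 1% DMSO. Absorbance followed 6 h at 30° C; rate from the 2-3 h window, normalised to no-compound and known-inhibitor controls, IC50 fitted.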

[2] = test system: MV-4-11 acute myeloid leukemia xenograft; test: MV-4-11 xenograft efficacy model; format: in vivo, mice; details: 25 mg/kg/day orally for 14 days in combination with Leunase 1000 U/kg
Procedure: The MV-4-11 acute myeloid leukemia xenograft model was performed in compliance with all the laws, regulations, and guidelines of the National Institutes of Health (NIH) and with the approval of the Animal Care and Use Committee of Crown Bioscience (Taicang, China), an AAALAC accredited facility. Food and water were provided ad libitum. […] Female NOD/SCID (6-9 weeks old; Vital River Laboratories Research Models and Services (Beijing, China)) were inoculated subcutaneously right front flank region with five million cells in Dulbecco's Phosphate Buffered Saline:Matrigel (1:1), using a 27-gauge needle and syringe. When tumor burdens reached 150 mm^3 on average on day 7, mice were randomly assigned into groups such that the mean tumor burden for all groups was within 10% of the overall mean tumor burden for the study population. Groups were treated on days 7-21 as follows: vehicle control (dosed orally and IP to mimic combination group (n=10); Compound 16 dosed orally at 25 mg/kg/day (n=10); Leunase (Kyowa Kirin, Japan) dosed IP at 1000 U/kg/day (n=10); Leunase (Kyowa Kirin, Japan) dosed IP at 1000 U/kg/day (n=10) and Compound 16 dosed orally at 25 mg/kg/day (n=10). Tumor volume and body weight were measured three times per week. Tumor burden (mg) was estimated from caliper measurements by the formula: tumor burden (mg=mm^3)=(length×width^2)/2.

GCN2 kinase = GCN2 kinase (Homo sapiens (Human), UniProt Q9P2K8); test: Biochemical assay for GCN2 (TR-FRET kinase activity assay); details: 1 mM ATP, 3-hour incubation
Summary of the method: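 TR-FRET assay with 2 nM GCN2, 130 nM GFP-eIF2α substrate, 0.2 mg/mL E. coli tRNA and 1 mM ATP; compounds (0.5% DMSO) reacted 3 h. Stopped with 20 mM EDTA plus 2 nM Tb-anti-peIF2α (pSer52), 60 min RT; 520/490 ratio converted to % inhibition, IC50 from four-parameter fit.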

GCN2 kinase, sequence (Q9P2K8 whole entry): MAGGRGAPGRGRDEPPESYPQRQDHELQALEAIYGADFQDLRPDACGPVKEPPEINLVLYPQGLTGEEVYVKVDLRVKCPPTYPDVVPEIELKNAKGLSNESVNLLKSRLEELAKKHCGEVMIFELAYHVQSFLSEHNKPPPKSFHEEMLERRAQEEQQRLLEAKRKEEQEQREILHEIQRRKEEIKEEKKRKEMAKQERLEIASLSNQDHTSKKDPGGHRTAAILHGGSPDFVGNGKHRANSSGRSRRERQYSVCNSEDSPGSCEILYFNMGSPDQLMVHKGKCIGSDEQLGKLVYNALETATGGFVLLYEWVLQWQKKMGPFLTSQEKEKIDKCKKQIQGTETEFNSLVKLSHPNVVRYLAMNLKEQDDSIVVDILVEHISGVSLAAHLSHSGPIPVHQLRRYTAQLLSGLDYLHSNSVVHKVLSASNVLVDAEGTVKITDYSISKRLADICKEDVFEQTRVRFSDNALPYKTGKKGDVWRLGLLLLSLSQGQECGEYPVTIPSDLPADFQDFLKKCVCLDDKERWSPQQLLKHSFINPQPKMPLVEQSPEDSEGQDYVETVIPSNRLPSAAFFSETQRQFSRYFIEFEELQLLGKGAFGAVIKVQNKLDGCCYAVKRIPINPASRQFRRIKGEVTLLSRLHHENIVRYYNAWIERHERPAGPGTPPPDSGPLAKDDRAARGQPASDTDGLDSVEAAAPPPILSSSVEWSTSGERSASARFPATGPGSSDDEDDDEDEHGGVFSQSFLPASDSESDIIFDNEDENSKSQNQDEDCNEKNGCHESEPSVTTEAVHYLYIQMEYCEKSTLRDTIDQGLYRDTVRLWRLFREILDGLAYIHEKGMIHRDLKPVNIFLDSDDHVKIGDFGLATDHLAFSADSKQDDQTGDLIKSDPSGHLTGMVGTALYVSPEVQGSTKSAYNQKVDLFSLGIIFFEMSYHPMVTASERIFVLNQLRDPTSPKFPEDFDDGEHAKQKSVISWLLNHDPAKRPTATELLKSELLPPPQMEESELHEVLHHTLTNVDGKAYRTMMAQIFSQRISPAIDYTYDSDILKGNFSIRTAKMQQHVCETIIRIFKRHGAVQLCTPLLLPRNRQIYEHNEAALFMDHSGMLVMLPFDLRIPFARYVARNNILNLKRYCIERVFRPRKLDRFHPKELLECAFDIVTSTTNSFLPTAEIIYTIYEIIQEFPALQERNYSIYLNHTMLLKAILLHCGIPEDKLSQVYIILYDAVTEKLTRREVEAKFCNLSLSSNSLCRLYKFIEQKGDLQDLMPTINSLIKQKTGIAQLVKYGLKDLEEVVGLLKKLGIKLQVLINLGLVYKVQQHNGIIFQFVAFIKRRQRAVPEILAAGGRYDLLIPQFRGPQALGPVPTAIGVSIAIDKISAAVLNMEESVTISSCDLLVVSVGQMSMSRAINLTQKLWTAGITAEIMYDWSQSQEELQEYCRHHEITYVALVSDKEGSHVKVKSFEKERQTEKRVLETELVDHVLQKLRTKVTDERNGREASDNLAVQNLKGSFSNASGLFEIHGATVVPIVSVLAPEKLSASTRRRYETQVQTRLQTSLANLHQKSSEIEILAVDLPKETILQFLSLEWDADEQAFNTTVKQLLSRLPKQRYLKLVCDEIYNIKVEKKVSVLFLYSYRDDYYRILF
PERK kinase, sequence (Q9NZJ5 other isoform, or with tags, fused parts or gaps): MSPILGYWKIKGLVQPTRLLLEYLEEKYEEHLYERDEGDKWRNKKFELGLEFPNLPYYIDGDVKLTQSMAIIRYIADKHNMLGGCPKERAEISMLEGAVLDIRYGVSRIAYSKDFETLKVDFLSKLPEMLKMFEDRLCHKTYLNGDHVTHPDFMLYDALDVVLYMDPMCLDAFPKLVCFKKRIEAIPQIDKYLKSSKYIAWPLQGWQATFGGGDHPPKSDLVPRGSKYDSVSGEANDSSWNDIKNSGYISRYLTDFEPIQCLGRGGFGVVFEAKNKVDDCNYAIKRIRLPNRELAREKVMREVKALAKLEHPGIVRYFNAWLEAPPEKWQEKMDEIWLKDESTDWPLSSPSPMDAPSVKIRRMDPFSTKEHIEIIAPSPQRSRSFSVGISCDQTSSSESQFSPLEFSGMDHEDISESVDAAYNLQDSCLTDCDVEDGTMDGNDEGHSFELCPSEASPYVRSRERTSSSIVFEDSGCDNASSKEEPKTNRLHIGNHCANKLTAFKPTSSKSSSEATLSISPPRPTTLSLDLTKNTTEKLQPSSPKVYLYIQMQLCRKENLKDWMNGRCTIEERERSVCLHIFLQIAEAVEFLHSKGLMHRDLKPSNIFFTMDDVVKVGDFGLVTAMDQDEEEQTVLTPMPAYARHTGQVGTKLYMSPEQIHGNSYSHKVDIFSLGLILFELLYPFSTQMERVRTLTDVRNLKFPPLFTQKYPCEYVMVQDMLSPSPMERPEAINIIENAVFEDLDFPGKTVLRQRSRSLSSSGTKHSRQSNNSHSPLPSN

SMILES: CNc1ncc2cc(-c3cccc(NS(=O)(=O)c4cc(Cl)cnc4OC)c3F)c(NC)nc2n1 [Compound 16]
- H929 NS ATF4 ELISA (fold stimulation of ATF4 relative to vehicle) [1]: +++ (“+++” refers to an ATF4 stim greater than 10 fold and less than or equal to 20 fold)
- IC50 (PERK kinase): 100 to 500 nM
- effect on MV-4-11 tumor growth [2]: tumor regression
- IC50 (GCN2 kinase): ≤ 100 nM
